Results on nine compounds are retold here after US20220132847A1, “CINNOLINIUM COMPOUNDS FOR USE IN A METHOD OF CONTROLLING UNWANTED PLANT GROWTH” (SYNGENTA CROP PROTECTION AG, priority 2019, published 2022).

Holding throughout (experiment): Post-emergence efficacy, glasshouse
Common to all, as to assay type: in vivo
Common to all, as to settings: evaluated after 13 days, 100=total damage to plant, 0=no damage to plant

For test [1], the system named is Digitaria sanguinalis (DIGSA). How it is done:
(§1) Seeds of a variety of test species were sown in standard soil in pots. After cultivation for 14 days (post-emergence) under controlled conditions in a glasshouse (at 24/16° C., day/night; 14 hours light; 65% humidity), the plants were sprayed with an aqueous spray solution derived from the dissolution of the technical active ingredient formula (I) in a small amount of acetone and a special solvent and emulsifier mixture referred to as IF50 (11.12% Emulsogen EL360™+44.44% N-methylpyrrolidone+44.44% Dowanol DPM glycol ether), to create a 50 g/l solution which was then diluted to required concentration using 0.25% or 1% Empicol ESC70 (Sodium lauryl ether sulphate)+1% ammonium sulphate in water as diluent.
(§2) The test plants were then grown in a glasshouse under controlled conditions (at 24/16° C., day/night; 14 hours light; 65% humidity) and watered twice daily. After 13 days the test was evaluated (100=total damage to plant; 0=no damage to plant).
(§3) Ipomoea hederacea (IPOHE), Euphorbia heterophylla (EPHHL), Chenopodium album (CHEAL), Amaranthus palmeri (AMAPA), Lolium perenne (LOLPE), Digitaria sanguinalis (DIGSA), Eleusine indica (ELEIN), Echinochloa crus-galli (ECHCG), Setaria faberi (SETFA)

Test [2] concerns Echinochloa crus-galli (ECHCG). How it is done: as §1, §2, §3
Test [3] deals with Chenopodium album (CHEAL). The method, then:
as §1, §2, §3

A further test has as its system Lolium perenne (LOLPE). The method, then:
as §1, §2, §3

Test [4] has as its system Euphorbia heterophylla (EPHHL). The method, then:
as §1, §2, §3

A further test relates to Setaria faberi (SETFA). The method, then: as §1, §2, §3
Test [5] relates to Ipomoea hederacea (IPOHE). The method, then: as §1, §2, §3
Test [6] concerns Amaranthus palmeri (AMAPA). The method, then:
as §1, §2, §3

In another test the test system is Eleusine indica (ELEIN). How it is done:
as §1, §2, §3

Where [7] appears, read: Digitaria sanguinalis, post-emergence, 312 h, Application Rate 1000 g/Ha, read-out: Control of weed species after post-emergence application, DIGSA.
The mark [8] stands for this setting: Echinochloa crus-galli, post-emergence, 312 h, Application Rate 1000 g/Ha, read-out: Control of weed species after post-emergence application, ECHCG.
Setting [9] is: Chenopodium album, post-emergence, 312 h, Application Rate 1000 g/Ha, read-out: Control of weed species after post-emergence application, CHEAL.
The mark [10] stands for this setting: Lolium perenne, post-emergence, 312 h, Application Rate 1000 g/Ha, read-out: Control of weed species after post-emergence application, LOLPE.
Where [11] appears, read: Euphorbia heterophylla, post-emergence, 312 h, Application Rate 1000 g/Ha, read-out: Control of weed species after post-emergence application, EPHHL.
[12] abbreviates: Setaria faberi, post-emergence, 312 h, Application Rate 1000 g/Ha, read-out: Control of weed species after post-emergence application, SETFA.
Where [13] appears, read: Ipomoea hederacea, post-emergence, 312 h, Application Rate 1000 g/Ha, read-out: Control of weed species after post-emergence application, IPOHE.
Setting [14] is: Amaranthus palmeri, post-emergence, 312 h, Application Rate 1000 g/Ha, read-out: Control of weed species after post-emergence application, AMAPA.
Where [15] appears, read: Eleusine indica, post-emergence, 312 h, Application Rate 1000 g/Ha, read-out: Control of weed species after post-emergence application, ELEIN.

Where a name gives a salt, the structure may show the parent alone.

Take `C[C@@H](NC(=O)c1c[n+](C)nc2ccccc12)C(=O)OC(C)(C)C` [Compound A8, tert-butyl (2R)-2-[(2-methylcinnolin-2-ium-4-carbonyl)amino]propanoate iodide]: the pest or weed control at 1000 g/ha amounted to 20% in [1] (setting [7]); 20% in [2] (setting [8]); 30% in test [3] (setting [9]); 20% in the test with Lolium perenne (LOLPE) (setting [10]); 30% in test [4] (setting [11]); 10% in the test with Setaria faberi (SETFA) (setting [12]). Further, the pest or weed control at 1000 g/ha is 10% in [5] (setting [13]), 20% in [6] (setting [14]) and 10% in the test with Eleusine indica (ELEIN) (setting [15]).
For the compound `O=C(O)c1c[n+](CCOS(=O)(=O)[O-])nc2ccccc12` [Compound A28, 2-(4-carboxycinnolin-2-ium-2-yl)ethyl sulfate], the pest or weed control at 1000 g/ha in test [1] (setting [7]) is 70%; in test [2] (setting [8]) it was 20%; in [3] (setting [9]), 70%; in the test with Lolium perenne (LOLPE) (setting [10]), 50%; in test [4] (setting [11]) it was 30%; in the test with Setaria faberi (SETFA) (setting [12]), 40%. Besides, the pest or weed control at 1000 g/ha in [5] (setting [13]) came out at 20%; in [6] (setting [14]), 90%; in the test on Eleusine indica (ELEIN) (setting [15]) it was 40%.
On to `C[n+]1cc(C(=O)[O-])c2ccccc2n1` [Compound A1], for which the pest or weed control at 1000 g/ha in test [1] (setting [7]) amounted to 90%; in [2] (setting [8]), 20%; in test [3] (setting [9]) it was 100%; in the test with Lolium perenne (LOLPE) (setting [10]), 50%; in test [4] (setting [11]) it was 70%; in the test on Setaria faberi (SETFA) (setting [12]), 30%. The pest or weed control at 1000 g/ha in test [5] (setting [13]) came to 70%; in test [6] (setting [14]) it was 100%; with Eleusine indica (ELEIN) (setting [15]), 100%.
With `C[n+]1cc(P(=O)([O-])O)c2ccccc2n1` [Compound A78, hydroxy-(2-methylcinnolin-2-ium-4-yl)phosphinate], the pest or weed control at 1000 g/ha in test [1] (setting [7]) was 50%; in test [2] (setting [8]), 50%; in test [3] (setting [9]), 10%; in the test on Lolium perenne (LOLPE) (setting [10]), 10%; in test [4] (setting [11]), 70%; with Setaria faberi (SETFA) (setting [12]) it was 40%. Besides, the pest or weed control at 1000 g/ha amounted to 10% in [5] (setting [13]), 30% in [6] (setting [14]) and 40% in the test on Eleusine indica (ELEIN) (setting [15]).
For `C[n+]1cc(CCC(=O)O)c2ccccc2n1` [Compound A55, 3-(2-methylcinnolin-2-ium-4-yl)propanoic acid chloride], the pest or weed control at 1000 g/ha in test [1] (setting [7]) worked out at 100%; in test [2] (setting [8]), 90%; in [3] (setting [9]), 100%; in the test on Lolium perenne (LOLPE) (setting [10]) it was 20%; in test [4] (setting [11]), 70%; in the test with Setaria faberi (SETFA) (setting [12]), 30%. In addition, the pest or weed control at 1000 g/ha stood at 70% in test [5] (setting [13]), 90% in test [6] (setting [14]) and 100% in the test on Eleusine indica (ELEIN) (setting [15]).
For `CS(=O)(=O)[N-]C(=O)c1c[n+](CC(F)F)nc2ccccc12` [Compound A14, [2-(2,2-difluoroethyl)cinnolin-2-ium-4-carbonyl]-methylsulfonyl-azanide], the pest or weed control at 1000 g/ha in test [1] (setting [7]) was determined as 40%; in test [2] (setting [8]), 20%; in test [3] (setting [9]) it was 20%; with Lolium perenne (LOLPE) (setting [10]), 0%; in test [4] (setting [11]) it was 40%; in the test with Setaria faberi (SETFA) (setting [12]), 30%. Moreover, the pest or weed control at 1000 g/ha was found to be 40% in [5] (setting [13]), 20% in test [6] (setting [14]) and 30% in the test with Eleusine indica (ELEIN) (setting [15]).
In the case of `COC(=O)CC[n+]1cc(C(=O)[N-]S(=O)(=O)C2CC2)c2ccccc2n1` [Compound A19, cyclopropylsulfonyl-[2-(3-methoxy-3-oxo-propyl)cinnolin-2-ium-4-carbonyl]azanide], the pest or weed control at 500 g/ha in [1] (Digitaria sanguinalis, post-emergence, 312 h, Application Rate 500 g/Ha, read-out: Control of weed species after post-emergence application, DIGSA) is 40%; in test [2] (Echinochloa crus-galli, post-emergence, 312 h, Application Rate 500 g/Ha, read-out: Control of weed species after post-emergence application, ECHCG), 60%; in [3] (Chenopodium album, post-emergence, 312 h, Application Rate 500 g/Ha, read-out: Control of weed species after post-emergence application, CHEAL), 60%; with Lolium perenne (LOLPE) (Lolium perenne, post-emergence, 312 h, Application Rate 500 g/Ha, read-out: Control of weed species after post-emergence application, LOLPE), 20%; in test [4] (Euphorbia heterophylla, post-emergence, 312 h, Application Rate 500 g/Ha, read-out: Control of weed species after post-emergence application, EPHHL), 40%; in the test on Setaria faberi (SETFA) (Setaria faberi, post-emergence, 312 h, Application Rate 500 g/Ha, read-out: Control of weed species after post-emergence application, SETFA) it was 0%. Also, the pest or weed control at 500 g/ha is 30% in [5] (Ipomoea hederacea, post-emergence, 312 h, Application Rate 500 g/Ha, read-out: Control of weed species after post-emergence application, IPOHE); 30% in [6] (Amaranthus palmeri, post-emergence, 312 h, Application Rate 500 g/Ha, read-out: Control of weed species after post-emergence application, AMAPA); 50% with Eleusine indica (ELEIN) (Eleusine indica, post-emergence, 312 h, Application Rate 500 g/Ha, read-out: Control of weed species after post-emergence application, ELEIN).
On to `CCOP(=O)(Cc1c[n+](C)nc2ccccc12)OCC.[I-]` [Compound A47, 4-(diethoxyphosphorylmethyl)-2-methyl-cinnolin-2-ium iodide], for which, in test [1] (Application Rate 1000 g/Ha), the “Control of weed species after post-emergence application, DIGSA” value is on record as 40. The “Control of weed species after post-emergence application, ECHCG” value in test [2] (Application Rate 1000 g/Ha) was determined as 30. Further, the “Control of weed species after post-emergence application, CHEAL” value in test [3] (Application Rate 1000 g/Ha) was found to be 70. In the test on Lolium perenne (LOLPE) (Application Rate 1000 g/Ha), the “Control of weed species after post-emergence application, LOLPE” value is on record as 10. Besides, the “Control of weed species after post-emergence application, EPHHL” value in test [4] (Application Rate 1000 g/Ha) is on record as 30. Moreover, in the test with Setaria faberi (SETFA) (Application Rate 1000 g/Ha), the “Control of weed species after post-emergence application, SETFA” value amounted to 40. Besides, the “Control of weed species after post-emergence application, IPOHE” value in test [5] (Application Rate 1000 g/Ha) is reported as 20. For the same compound, the “Control of weed species after post-emergence application, AMAPA” value in test [6] (Application Rate 1000 g/Ha) is listed as 60. Further, the “Control of weed species after post-emergence application, ELEIN” value in the test with Eleusine indica (ELEIN) (Application Rate 1000 g/Ha) was 50.
On to `C[n+]1cc(C(=O)[N-]S(=O)(=O)CCC(F)(F)F)c2ccccc2n1` [Compound A43], for which the pest or weed control at 1000 g/ha in test [1] (setting [7]) worked out at 70%; in test [2] (setting [8]), 30%; in test [3] (setting [9]), 30%; in the test on Lolium perenne (LOLPE) (setting [10]), 20%; in test [4] (setting [11]), 90%; in the test with Setaria faberi (SETFA) (setting [12]), 50%. For the same compound, the pest or weed control at 1000 g/ha in [5] (setting [13]) turned out to be 80%; in test [6] (setting [14]), 60%; in the test with Eleusine indica (ELEIN) (setting [15]) it was 90%.
